Test results taken from the CheMixHub viscosity set.
Values joined by “and” are separate entries in the source; they are usually repeats but may differ in a detail not shown here. Identical values can stand only once.

OCCCCCO
101 kPa
Settings	viscosity [mPa·s]
313.15 K	45.63
318.15 K	36.87
323.15 K	29.8

OC1CCCC1
100 kPa
Settings	viscosity
293.15 K	12.9 mPa·s
298.15 K	10.41 mPa·s
303.15 K	8.2 mPa·s and 8.088 mPa·s
308.15 K	6.85 mPa·s and 6.528 mPa·s
318.15 K	4.742 mPa·s
318.16 K	4.87 mPa·s

CCCCn1cc[n+](C)c1.F[P-](F)(F)(F)(F)F
viscosity
Settings	293.15 K	293.2 K	298.15 K	303.15 K	308.15 K	308.19 K	313.15 K	318.15 K	323.15 K
100 kPa	336.9 mPa·s	342.7 mPa·s	256.7 mPa·s	197.6 mPa·s	148.3 mPa·s	144 mPa·s	112 mPa·s	87.66 mPa·s	70.97 mPa·s
101 kPa	378 mPa·s and 249.5 mPa·s and 265.2 mPa·s	–	–	187.6 mPa·s and 136 mPa·s and 165.7 mPa·s	101.5 mPa·s and 133.9 mPa·s	–	129.7 mPa·s and 79.01 mPa·s and 110.8 mPa·s	93.5 mPa·s and 62.4 mPa·s and 95.75 mPa·s	88.51 mPa·s and 47.7 mPa·s

CCCC(C)C
101.33 kPa
Settings	viscosity [mPa·s]
298 K	0.2753
298.15 K	0.2767

CCO
Settings	viscosity
293.61 K, 100 kPa	1.18 mPa·s
293.91 K, 100 kPa	1.17 mPa·s
294.21 K, 100 kPa	1.17 mPa·s
294.52 K, 100 kPa	1.16 mPa·s
294.82 K, 100 kPa	1.16 mPa·s
295.12 K, 100 kPa	1.15 mPa·s
295.42 K, 100 kPa	1.15 mPa·s
295.73 K, 100 kPa	1.14 mPa·s
296.03 K, 100 kPa	1.14 mPa·s
296.33 K, 100 kPa	1.13 mPa·s
296.64 K, 100 kPa	1.13 mPa·s
296.94 K, 100 kPa	1.12 mPa·s
297.24 K, 100 kPa	1.12 mPa·s
298.15 K, 101 kPa	1.03 mPa·s
299.06 K, 100 kPa	1.08 mPa·s
299.36 K, 100 kPa	1.08 mPa·s
299.67 K, 100 kPa	1.07 mPa·s
299.97 K, 100 kPa	1.07 mPa·s
300.27 K, 100 kPa	1.06 mPa·s
300.58 K, 100 kPa	1.06 mPa·s
300.88 K, 100 kPa	1.05 mPa·s
301.18 K, 100 kPa	1.05 mPa·s
301.48 K, 100 kPa	1.04 mPa·s
301.79 K, 100 kPa	1.04 mPa·s
302.09 K, 100 kPa	1.03 mPa·s
302.39 K, 100 kPa	1.03 mPa·s
303.15 K, 100 kPa	0.989 mPa·s
303.15 K, 101.33 kPa	0.988 mPa·s
303.61 K, 100 kPa	1.01 mPa·s
303.91 K, 100 kPa	1 mPa·s
304.21 K, 100 kPa	1 mPa·s
304.52 K, 100 kPa	0.99 mPa·s
304.82 K, 100 kPa	0.99 mPa·s
305.12 K, 100 kPa	0.98 mPa·s
305.42 K, 100 kPa	0.98 mPa·s
305.73 K, 100 kPa	0.97 mPa·s
306.03 K, 100 kPa	0.97 mPa·s
306.33 K, 100 kPa	0.96 mPa·s
306.64 K, 100 kPa	0.96 mPa·s
306.94 K, 100 kPa	0.95 mPa·s
307.24 K, 100 kPa	0.95 mPa·s
307.55 K, 100 kPa	0.94 mPa·s
307.85 K, 100 kPa	0.94 mPa·s
308.15 K, 100 kPa	0.93 mPa·s
308.45 K, 100 kPa	0.93 mPa·s
308.76 K, 100 kPa	0.92 mPa·s
309.06 K, 100 kPa	0.92 mPa·s
309.36 K, 100 kPa	0.91 mPa·s
309.67 K, 100 kPa	0.91 mPa·s
309.97 K, 100 kPa	0.9 mPa·s
310.27 K, 100 kPa	0.9 mPa·s
310.58 K, 100 kPa	0.89 mPa·s
310.88 K, 100 kPa	0.89 mPa·s
311.18 K, 100 kPa	0.88 mPa·s
311.48 K, 100 kPa	0.88 mPa·s
313.15 K, 100 kPa	0.8179 mPa·s and 0.82 mPa·s
313.15 K, 101.32 kPa	0.835 mPa·s
318.15 K, 100 kPa	0.75 mPa·s
323 K, 101.33 kPa	0.673 mPa·s and 0.673 mPa·s
323.15 K, 101.32 kPa	0.702 mPa·s

COCCOCCOCCOCCOC
viscosity
Settings	293.15 K	298 K	298.15 K	303.15 K	308.15 K	318.15 K	323.15 K
101 kPa	3.795 mPa·s	3.295 mPa·s	–	2.955 mPa·s	2.646 mPa·s and 2.643 mPa·s and 2.524 mPa·s	2.168 mPa·s and 2.11 mPa·s	1.975 mPa·s
101.33 kPa	–	–	3.394 mPa·s	–	–	–	–
